From patent US8071768B2, “Alkylquinoline and alkylquinazoline kinase modulators” (Janssen Pharmaceutica, N.V., priority 2005, dated 2011)

These compounds were tested against T1, TrkB (Homo sapiens, UniProt Q16620) (assay: Trk B Fluorescence Polarization Kinase Assay). Conditions: uncertainty ±10%.
T1 construct: purchased Upstate 14-507M
Assay type: biochemical
Procedure, shortened: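 The TrkB kinase reaction (50 nM enzyme, 20 ug/mL poly Glu4Tyr, 150 uM ATP, 5 mM MgCl2, 1% DMSO) ran 30 minutes at room temperature and was stopped with EDTA. Phosphorylation was detected by fluorescence-polarization displacement of a fluorescein phosphopeptide from an anti-phosphotyrosine antibody. IC50 came from a variable-slope sigmoidal fit of triplicates.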

T1 sequence (Q16620 32-822): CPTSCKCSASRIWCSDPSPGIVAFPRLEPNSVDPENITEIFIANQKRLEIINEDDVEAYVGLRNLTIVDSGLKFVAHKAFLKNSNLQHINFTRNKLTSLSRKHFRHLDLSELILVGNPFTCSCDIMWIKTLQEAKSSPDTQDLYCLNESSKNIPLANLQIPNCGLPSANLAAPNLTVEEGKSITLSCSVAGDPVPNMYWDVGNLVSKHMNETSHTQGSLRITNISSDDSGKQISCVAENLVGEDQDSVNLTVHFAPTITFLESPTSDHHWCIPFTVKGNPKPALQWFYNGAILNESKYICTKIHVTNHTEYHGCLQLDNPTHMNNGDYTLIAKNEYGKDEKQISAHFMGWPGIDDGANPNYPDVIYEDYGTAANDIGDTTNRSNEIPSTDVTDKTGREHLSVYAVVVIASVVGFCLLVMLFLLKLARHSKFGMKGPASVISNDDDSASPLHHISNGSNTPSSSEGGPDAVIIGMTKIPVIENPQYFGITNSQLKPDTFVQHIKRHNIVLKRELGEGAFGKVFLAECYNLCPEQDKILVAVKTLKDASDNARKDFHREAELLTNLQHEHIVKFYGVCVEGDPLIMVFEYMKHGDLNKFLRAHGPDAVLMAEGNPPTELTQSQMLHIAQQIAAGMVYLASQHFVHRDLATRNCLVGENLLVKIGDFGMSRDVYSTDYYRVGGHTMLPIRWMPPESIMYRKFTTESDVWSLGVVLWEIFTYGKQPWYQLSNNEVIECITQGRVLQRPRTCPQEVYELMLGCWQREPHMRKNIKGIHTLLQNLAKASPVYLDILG

Row | IC50 | SMILES
1 | 0.13 µM | CC(C)Oc1ccc(NC(=O)N2CCC(c3ncnc4cc(OCCCOS(C)(=O)=O)ccc34)CC2)cc1 [Compound 121, Methanesulfonic acid 3-{4-[1-(4-isopropoxy-phenylcarbamoyl)-piperidin-4-yl]-quinazolin-7-yloxy}-propyl ester]
2 | 18.9 µM | CS(=O)(=O)OCCCOc1ccc2c(C3CCN(C(=O)Nc4ccc(N5CCOCC5)cc4)CC3)ncnc2c1 [Compound 122, Methanesulfonic acid 3-{4-[1-(4-morpholin-4-yl-phenylcarbamoyl)-piperidin-4-yl]-quinazolin-7-yloxy}-propyl ester]
3 | > 20 µM | O=C(Nc1ccc(N2CCOCC2)cc1)N1CCC(c2ncnc3cc(OCCCN4CCNCC4)ccc23)CC1 [Compound 123, 4-[7-(3-piperazin-1-yl-propoxy)-quinazolin-4-yl]-piperidine-1-carboxylic acid (4-morpholin-4-yl-phenyl)-amide]
4 | > 20 µM | O=C(Nc1ccc(N2CCOCC2)cc1)N1CCC(c2ncnc3cc(OCCCN4CCCC4)ccc23)CC1 [Compound 124, 4-[7-(3-Pyrrolidin-1-yl-propoxy)-quinazolin-4-yl]-piperidine-1-carboxylic acid (4-morpholin-4-yl-phenyl)-amide]
5 | > 20 µM | CN1CCCN(CCCOc2ccc3c(C4CCN(C(=O)Nc5ccc(N6CCOCC6)cc5)CC4)ncnc3c2)CC1 [Compound 125, 4-{7-[3-(4-Methyl-[1,4]diazepan-1-yl)-propoxy]-quinazolin-4-yl}-piperidine-1-carboxylic acid (4-morpholin-4-yl-phenyl)-amide]
6 | 10.2 µM | O=C(Nc1ccc(N2CCOCC2)cc1)N1CCC(c2ncnc3cc(N4CC[C@@H](O)C4)ccc23)CC1 [Compound 126, (R)-4-[7-(3-Hydroxy-pyrrolidin-1-yl)-quinazolin-4-yl]-piperidine-1-carboxylic acid (4-morpholin-4-yl-phenyl)-amide]
7 | 13.6 µM | CN1CCC(Oc2ccc3c(C4CCN(C(=O)Nc5ccc(N6CCOCC6)cc5)CC4)ncnc3c2)CC1 [Compound 127, 4-[7-(1-Methyl-piperidin-4-yloxy)-quinazolin-4-yl]-piperidine-1-carboxylic acid (4-morpholin-4-yl-phenyl)-amide]
8 | > 20 µM | O=C(Nc1ccc(N2CCOCC2)cc1)N1CCC(c2ncnc3cc(N4CC[C@H](O)C4)ccc23)CC1 [Compound 128, 4-[7-(3-Hydroxy-pyrrolidin-1-yl)-quinazolin-4-yl]-piperidine-1-carboxylic acid (4-morpholin-4-yl-phenyl)-amide]
9 | 3.11 µM | O=C(Nc1ccc(N2CCCC2)cc1)N1CCC(c2ncnc3cc(N4CC[C@H](O)C4)ccc23)CC1 [Compound 129, (S)-4-[7-(3-Hydroxy-pyrrolidin-1-yl)-quinazolin-4-yl]-piperidine-1-carboxylic acid (4-pyrrolidin-1-yl-phenyl)-amide]
10 | > 42 µM | COC[C@H]1CCCN1c1ccc2c(C3CCN(C(=O)Nc4ccc(N5CCOCC5)cc4)CC3)ncnc2c1 [Compound 130, (R)-4-[7-(2-Methoxymethyl-pyrrolidin-1-yl)-quinazolin-4-yl]-piperidine-1-carboxylic acid (4-morpholin-4-yl-phenyl)-amide]
11 | 5.31 µM | CC(C)Oc1ccc(NC(=O)N2CCC(c3ncnc4ccc(N5CCN(C)CC5)cc34)CC2)cc1 [Compound 131, 4-[6-(4-Methyl-piperazin-1-yl)-quinazolin-4-yl]-piperidine-1-carboxylic acid (4-isopropoxy-phenyl)-amide]
12 | > 42 µM | O=C(Nc1ccc(N2CCOCC2)cc1)N1CCC(c2ncnc3cc(N4CCC[C@@H]4CO)ccc23)CC1 [Compound 132, (R)-4-[7-(2-Hydroxymethyl-pyrrolidin-1-yl)-quinazolin-4-yl]-piperidine-1-carboxylic acid (4-morpholin-4-yl-phenyl)-amide]
13 | > 42 µM | O=C(Nc1ccc(N2CCOCC2)cc1)N1CCC(c2ncnc3cc(OCCCN4CCOCC4)ccc23)CC1 [Compound 133, 4-[7-(3-Morpholin-4-yl-propoxy)-quinazolin-4-yl]-piperidine-1-carboxylic acid (4-morpholin-4-yl-phenyl)-amide]
14 | > 42 µM | CCN(CC)CCCOc1ccc2c(C3CCN(C(=O)Nc4ccc(N5CCOCC5)cc4)CC3)ncnc2c1 [Compound 134, 4-[7-(3-Diethylamino-propoxy)-quinazolin-4-yl]-piperidine-1-carboxylic acid (4-morpholin-4-yl-phenyl)-amide]
15 | > 42 µM | CN1CCN(c2ccc3c(C4CCN(C(=O)Nc5ccc(N6CCOCC6)cc5)CC4)ncnc3c2)CC1 [Compound 135, 4-[7-(4-Methyl-piperazin-1-yl)-quinazolin-4-yl]-piperidine-1-carboxylic acid (4-morpholin-4-yl-phenyl)-amide]
16 | > 42 µM | CCN1CCN(c2ccc3c(C4CCN(C(=O)Nc5ccc(N6CCOCC6)cc5)CC4)ncnc3c2)CC1 [Compound 136, 4-[7-(4-Ethyl-piperazin-1-yl)-quinazolin-4-yl]-piperidine-1-carboxylic acid (4-morpholin-4-yl-phenyl)-amide]

Row | IC50 | SMILES
17 | > 42 µM | O=C(Nc1ccc(N2CCOCC2)cc1)N1CCC(c2ncnc3cc(N4CCN(CCO)CC4)ccc23)CC1 [Compound 137, 4-{7-[4-(2-Hydroxy-ethyl)-piperazin-1-yl]-quinazolin-4-yl}-piperidine-1-carboxylic acid (4-morpholin-4-yl-phenyl)-amide]
18 | > 42 µM | CN1CCCN(c2ccc3c(C4CCN(C(=O)Nc5ccc(N6CCOCC6)cc5)CC4)ncnc3c2)CC1 [Compound 138, 4-[7-(4-Methyl-[1,4]diazepan-1-yl)-quinazolin-4-yl]-piperidine-1-carboxylic acid (4-morpholin-4-yl-phenyl)-amide]
19 | 33.8 µM | O=C(Nc1ccc(N2CCOCC2)cc1)N1CCC(c2ncnc3cc(N4CCC[C@H]4CO)ccc23)CC1 [Compound 139, (S)-4-[7-(2-Hydroxymethyl-pyrrolidin-1-yl)-quinazolin-4-yl]-piperidine-1-carboxylic acid (4-morpholin-4-yl-phenyl)-amide]
20 | > 42 µM | O=C(Nc1ccc(N2CCOCC2)cc1)N1CCC(c2ncnc3cc(N4CCNCC4)ccc23)CC1 [Compound 140, 4-(7-piperazin-1-yl-quinazolin-4-yl)-piperidine-1-carboxylic acid (4-morpholin-4-yl-phenyl)-amide]
21 | 15 µM | CC(=O)N1CCN(c2ccc3c(C4CCN(C(=O)Nc5ccc(N6CCOCC6)cc5)CC4)ncnc3c2)CC1 [Compound 141, 4-[7-(4-Acetyl-piperazin-1-yl)-quinazolin-4-yl]-piperidine-1-carboxylic acid (4-morpholin-4-yl-phenyl)-amide]
22 | 17.4 µM | CS(=O)(=O)N1CCN(c2ccc3c(C4CCN(C(=O)Nc5ccc(N6CCOCC6)cc5)CC4)ncnc3c2)CC1 [Compound 142, 4-[7-(4-Methanesulfonyl-piperazin-1-yl)-quinazolin-4-yl]-piperidine-1-carboxylic acid (4-morpholin-4-yl-phenyl)-amide]
23 | 7.6 µM | CN(C)C(=O)N1CCN(c2ccc3c(C4CCN(C(=O)Nc5ccc(N6CCOCC6)cc5)CC4)ncnc3c2)CC1 [Compound 143, 4-{4-[1-(4-Morpholin-4-yl-phenylcarbamoyl)-piperidin-4-yl]-quinazolin-7-yl}-piperazine-1-carboxylic acid dimethylamide]
24 | 14.2 µM | CN(C)CC(=O)N1CCN(c2ccc3c(C4CCN(C(=O)Nc5ccc(N6CCOCC6)cc5)CC4)ncnc3c2)CC1 [Compound 144, 4-{7-[4-(2-Dimethylamino-acetyl)-piperazin-1-yl]-quinazolin-4-yl}-piperidine-1-carboxylic acid (4-morpholin-4-yl-phenyl)-amide]
25 | 21.1 µM | O=C(Nc1ccc(N2CCOCC2)cc1)N1CCC(c2ncnc3cc(N4CCOCC4)ccc23)CC1 [Compound 145, 4-(7-Morpholin-4-yl-quinazolin-4-yl)-piperidine-1-carboxylic acid (4-morpholin-4-yl-phenyl)-amide]
26 | > 42 µM | CS(=O)(=O)CCNc1ccc2c(C3CCN(C(=O)Nc4ccc(N5CCOCC5)cc4)CC3)ncnc2c1 [Compound 146, 4-[7-(2-Methanesulfonyl-ethylamino)-quinazolin-4-yl]-piperidine-1-carboxylic acid (4-morpholin-4-yl-phenyl)-amide]
27 | 2.73 µM | O=C(Nc1ccc(N2CCCC2)cc1)N1CCC(c2ncnc3cc(OCCN4CCOC4=O)ccc23)CC1 [Compound 147, 4-{7-[2-(2-Oxo-oxazolidin-3-yl)-ethoxy]-quinazolin-4-yl}-piperidine-1-carboxylic acid (4-pyrrolidin-1-yl-phenyl)-amide]
28 | 26.7 µM | O=C(Nc1ccc(N2CCOCC2)cc1)N1CCC(c2ncnc3cc(OCCN4CCOC4=O)ccc23)CC1 [Compound 148, 4-{7-[2-(2-Oxo-oxazolidin-3-yl)-ethoxy]-quinazolin-4-yl}-piperidine-1-carboxylic acid (4-morpholin-4-yl-phenyl)-amide]
29 | 7.26 µM | CN(C)[C@@H]1CCN(c2ccc3c(C4CCN(C(=O)Nc5ccc(N6CCCC6)cc5)CC4)ncnc3c2)C1 [Compound 149, (R)-4-[7-(3-Dimethylamino-pyrrolidin-1-yl)-quinazolin-4-yl]-piperidine-1-carboxylic acid (4-pyrrolidin-1-yl-phenyl)-amide]
30 | > 42 µM | CN(C)[C@@H]1CCN(c2ccc3c(C4CCN(C(=O)Nc5ccc(N6CCOCC6)cc5)CC4)ncnc3c2)C1 [Compound 150, (R)-4-[7-(3-Dimethylamino-pyrrolidin-1-yl)-quinazolin-4-yl]-piperidine-1-carboxylic acid (4-morpholin-4-yl-phenyl)-amide]
31 | > 42 µM | CN1CCC[C@H]1COc1ccc2c(C3CCN(C(=O)Nc4ccc(N5CCCC5)cc4)CC3)ncnc2c1 [Compound 151, (S)-4-[7-(1-Methyl-pyrrolidin-2-ylmethoxy)-quinazolin-4-yl]-piperidine-1-carboxylic acid (4-pyrrolidin-1-yl-phenyl)-amide]
